The values that follow are results of earlier work, collected in patent US20160017431A1, “Methods for Predicting EGFR Tyrosine Kinase Inhibitor Efficacy” (Driver Group, priority 2014, published 2016).

The test system of this data set is EGFR mutants carrying the T790M mutation. The note with it: statement 'has been shown', no data given.

Consider `COc1cc(N2CCC(N(C)C)CC2)ccc1Nc1ncc(Cl)c(Nc2ccccc2P(C)(C)=O)n1` [AP26113], for which the “inhibition of the tyrosine kinase activity of EGFR mutants carrying the T790M mutation” value is given as “able to inhibit the tyrosine kinase activity”. `COc1cc2ncnc(Nc3ccc(F)c(Cl)c3)c2cc1NC(=O)/C=C/CN1CCCCC1` [Dacomitinib]: the “inhibition of the tyrosine kinase activity of EGFR mutants carrying the T790M mutation” value is on record as “able to inhibit the tyrosine kinase activity”.
